Paper PMC12728616, “Regioselective Glycosylation of Fluorine-18-Labeled Sorbitol for Enhanced Bacterial Detection In Vivo Using PET” (JACS Au, 2025)
Where “and” joins values, the source holds several entries; their conditions need not be identical. Identical values can stand only once.

Columns and labels:
MRSA = test: PET/CT in MRSA myositis murine model; assay type: in vivo, mice; conditions: for ratio of live/heat-killed S. aureus inoculated sites, in vivo: PET 80 min postinjection (mid time)
Method: We next compared [^18F]-FNT and [^18F]-FMT PET in a S. aureus myositis model. […] To compare the in vivo detection sensitivity of [^18F]-FNT and [^18F]-FMT in a MRSA myositis model, we injected the left deltoid with live MRSA and the right deltoid with 10x heat-killed MRSA, respectively (Figure B).
All animal procedures were conducted in accordance with UCSF institutional guidelines and were approved by the Institutional Animal Care and Use Committee (IACUC). Female CBA/J mice (9 and 11 weeks old) were used for the study. Pulmonary infection and bacterial myositis models were established based on previously published protocols. , For pulmonary infection, 50 μL of K. pneumoniae (5 × 10^6 CFU) or 10× heat-killed K. pneumoniae were administered intranasally under anesthesia 24 h prior to imaging using PET. After PET scans, infected lungs were homogenized in PBS and plated on LB agar. Plates were incubated overnight at 37 °C to quantify the bacterial burden. […] Immediately following all imaging studies, target tissues were harvested, and radioactivity was measured using a gamma counter.
(§1) μPET/CT imaging was conducted using a nanoScan μPET/CT instrument (PET123S/CT1512, Mediso). Mice were anesthetized with 2% isoflurane/oxygen for intravenous administration of ^18F-tracers (∼5 MBq in 150 μL) via tail vein and maintained during data acquisition. PET data of uninfected mice were acquired in the list mode for 90 min, starting immediately after ^18F-tracer administration, followed by a CT scan. The PET data were reconstructed into three-dimensional volumes and coregistered with CT images using manufacturer-provided software in 53 dynamic frames (15 × 2 s, 6 × 5 s, 6 × 10 s, 4 × 30 s, 6 × 30 s, and 16 × 300 s). PET data of infected mice were acquired for 20 min, starting at 70 min postinjection of ^18F-tracer (mid time 80 min), followed by a CT scan. The list mode PET data were reconstructed into three-dimensional volumes in a single static frame. All PET scans were corrected for ^18F decay, dead time, and random coincidences and reconstructed into a 160 × 160 × 184 matrix with voxel size 0.8 mm using a three-dimensional ordered subject expectation maximization (OSEM) algorithm (40 iterations, 1 subset). Both attenuation and scatter corrections were applied to PET reconstructions using the coregistered CT. ROIs were drawn manually around the brain, lungs, liver, kidney, and urinary bladder using Amide software to generate image-derived TACs. For the estimation of blood pool radioactivity over time, ROIs were drawn on the left atrium. To estimate the plasma half-life of tracers, the TAC of the blood pool was fitted to a two-compartment model using a biexponential decay function: C t(t) = Ae ^–αt + Be ^ ‑βt , where C t(t) is the tracer concentration (% IDcc^–1) at time (t), A and B are the intercepts, and α and β are the distribution and elimination rate constants, respectively. , Quantitative uptake values are expressed as % IDcc^–1, representing the percent of the total injected dose per cubic centimeter. For the S. aureus myositis model, identical volume ROIs were drawn corresponding to the peak uptake of [^18F]-FNT at the live S. aureus inoculated site and heat-killed S. aureus inoculated site, respectively.

K. pneumoniae = test: PET/CT in K. pneumoniae pneumonia murine model; assay type: in vivo, mice; conditions: for PET signal in heat-killed K. pneumoniae inoculated lungs: 10x heat-killed K. pneumoniae; for ex vivo infected/uninfected lung ratio: ex vivo gamma counting after PET; for ROI-derived infected/uninfected lung ratio: in vivo PET, 80 min postinjection (mid time), 24 h after intranasal K. pneumoniae
Method: Given promising low background signals in uninfected mice, we further evaluated [^18F]-FNT and [^18F]-FMT in two different clinically relevant mouse models of lung and muscle infections. […] PET scanning was performed at 24 h postintranasal bacterial installation (Figure A). […] The ROI-derived infected/uninfected lung ratios of [^18F]-FDS, [^18F]-FMT, and [^18F]-FNT were approximately 3.2, 6.1, and 5.9-fold, respectively (Figure C), also supported by the ex vivo infected/uninfected lung ratio of [^18F]-FDS (∼1.6-fold), [^18F]-FMT (∼5.7-fold), and [^18F]-FNT (∼5.7-fold) (Figure D). Post-PET scans, infected lungs were harvested to determine colony forming units (CFUs). No significant differences in bacterial counts were observed among [^18F]-FDS, [^18F]-FMT, and [^18F]-FNT (Figure E). To confirm radiotracer specificity, we also evaluated mice inoculated with 10x heat-killed K. pneumoniae into lungs (Supporting Information Figure S5A–C).
All animal procedures were conducted in accordance with UCSF institutional guidelines and were approved by the Institutional Animal Care and Use Committee (IACUC). Female CBA/J mice (9 and 11 weeks old) were used for the study. Pulmonary infection and bacterial myositis models were established based on previously published protocols. , For pulmonary infection, 50 μL of K. pneumoniae (5 × 10^6 CFU) or 10× heat-killed K. pneumoniae were administered intranasally under anesthesia 24 h prior to imaging using PET. After PET scans, infected lungs were homogenized in PBS and plated on LB agar. Plates were incubated overnight at 37 °C to quantify the bacterial burden. For the bacterial myositis model, mice were intramuscularly injected with either 1 × 10^6 CFUs of live S. aureus (MSSA or MRSA) or 1 × 10^7 CFUs of heat-killed bacteria (50 μL) into the left and right deltoid muscles, respectively, 10 h prior to imaging using PET. Immediately following all imaging studies, target tissues were harvested, and radioactivity was measured using a gamma counter.
as §1, with “For the S. aureus myositis model, identical volume ROIs were drawn corresponding to the peak uptake of [^18F]-FNT at the live S. aureus inoculated site and heat-killed S. aureus inoculated site, respectively.” left out

Row | SMILES | ratio of live/heat-killed S. aureus inoculated sites, in vivo (MRSA; MRSA myositis) [fold] | uptake at heat-killed sites, dynamic PET (MRSA; by 70 min postinjection) | PET signal at live MRSA inoculated deltoid, 10^4 CFU (MRSA; inoculum 10^4 CFU, not significant vs uninfected controls (P = 0.2187)) | PET signal at sites inoculated with heat-killed MRSA (MRSA; static PET/CT 80 min postinjection (mid time)) | PET signal in heat-killed K. pneumoniae inoculated lungs (K. pneumoniae) | ex vivo infected/uninfected lung ratio (K. pneumoniae) [fold] | ROI-derived infected/uninfected lung ratio (K. pneumoniae) | ratio of live/heat-killed S. aureus inoculated sites, ex vivo (MRSA; MRSA myositis, ex vivo analysis) [fold]
1 | OC[C@@H](O)[C@@H](O)[C@H](O[C@H]1O[C@H](CO)[C@@H](O)[C@H](O)[C@H]1O)[C@@H]([18F])CO [[18F]FNT, 2-deoxy-2-[18F]fluoro-D-nigeritol] | ~28 | negligible | negligible signals | no detectable signal | No visible signal | ~5.7 | ~6 fold and ~5.9 fold | 
2 | OC[C@@H](O)[C@@H](O[C@H]1O[C@H](CO)[C@@H](O)[C@H](O)[C@H]1O)[C@H](O)[C@@H]([18F])CO [[18F]FMT, 2-deoxy-2-[18F]fluoro-D-maltitol] | 6 |  |  |  | No visible signal | ~5.7 | ~6 fold and ~6.1 fold | 2.7
